The text below walks through data of ChEMBL document CHEMBL3045625, “Antifeedant properties and chemotaxonomic implications of sesquiterpene lactones and syringin from Rhaponticum pulchrum” (2006).

Common to all, as to type: functional
One assay has as its system Trogoderma granarium. Briefly: Antifeedant activity against Trogoderma granarium (khapra beetle) in compound treated wheat wafer disks assessed as antifeedant index by no-choice/two-choice assay.
The subject of the next assay is Tribolium confusum. In words: Antifeedant activity against Tribolium confusum (confused flour beetle) in compound treated wheat wafer discs assessed as antifeedant index by no-choice/two-choice assay.
The next assay deals with Sitophilus granarius. Briefly: Antifeedant activity against Sitophilus granarius (granary weevil) in compound treated wheat wafer disks assessed as antifeedant index by no-choice/two-choice assay.

Molecules are shown by their SMILES.

As to `C=C(CO)C(=O)O[C@H]1CC(=C)[C@@H]2C[C@H](O)C(=C)[C@@H]2[C@H]2OC(=O)C(=C)[C@@H]21` [CYNAROPICRIN], the values for the Activity with Trogoderma granarium, with Tribolium confusum and in the assay with Sitophilus granarius were 49.5, 98.8 and 51.6, respectively.

On to `C=C(C)C(=O)O[C@H]1CC(=C)[C@@H]2C[C@H](O)C(=C)[C@@H]2[C@H]2OC(=O)C(=C)[C@@H]21` [AGUERIN B], for which the Activity with Trogoderma granarium worked out at 116.5; in the assay on Tribolium confusum it was 114.5; with Sitophilus granarius, 94.7.

Regarding `COc1cc(/C=C/CO)cc(OC)c1O[C@@H]1O[C@H](CO)[C@@H](O)[C@H](O)[C@H]1O` [SYRINGIN], the Activity with Trogoderma granarium is listed as 61.7; in the assay with Tribolium confusum, 125.6; with Sitophilus granarius it was 134.4.

For the compound `C=C(CO)C(=O)O[C@H]1CC(=C)[C@@H]2C[C@H](O)[C@]3(CO3)[C@@H]2[C@H]2OC(=O)C(=C)[C@@H]21` [JANERIN], the Activity turned out to be 95 in the assay with Trogoderma granarium, 104 with Tribolium confusum and 69 in the assay on Sitophilus granarius.
